According to patent US11058702B2 (EMEK, Inc., priority 2014, dated 2021):

How the values were obtained:
[1] = biological target: T1, human liver IPdR-aldehyde oxidase (Homo sapiens, UniProt Q06278); conditions: low concentrations
T1 sequence (Q06278 1-1338): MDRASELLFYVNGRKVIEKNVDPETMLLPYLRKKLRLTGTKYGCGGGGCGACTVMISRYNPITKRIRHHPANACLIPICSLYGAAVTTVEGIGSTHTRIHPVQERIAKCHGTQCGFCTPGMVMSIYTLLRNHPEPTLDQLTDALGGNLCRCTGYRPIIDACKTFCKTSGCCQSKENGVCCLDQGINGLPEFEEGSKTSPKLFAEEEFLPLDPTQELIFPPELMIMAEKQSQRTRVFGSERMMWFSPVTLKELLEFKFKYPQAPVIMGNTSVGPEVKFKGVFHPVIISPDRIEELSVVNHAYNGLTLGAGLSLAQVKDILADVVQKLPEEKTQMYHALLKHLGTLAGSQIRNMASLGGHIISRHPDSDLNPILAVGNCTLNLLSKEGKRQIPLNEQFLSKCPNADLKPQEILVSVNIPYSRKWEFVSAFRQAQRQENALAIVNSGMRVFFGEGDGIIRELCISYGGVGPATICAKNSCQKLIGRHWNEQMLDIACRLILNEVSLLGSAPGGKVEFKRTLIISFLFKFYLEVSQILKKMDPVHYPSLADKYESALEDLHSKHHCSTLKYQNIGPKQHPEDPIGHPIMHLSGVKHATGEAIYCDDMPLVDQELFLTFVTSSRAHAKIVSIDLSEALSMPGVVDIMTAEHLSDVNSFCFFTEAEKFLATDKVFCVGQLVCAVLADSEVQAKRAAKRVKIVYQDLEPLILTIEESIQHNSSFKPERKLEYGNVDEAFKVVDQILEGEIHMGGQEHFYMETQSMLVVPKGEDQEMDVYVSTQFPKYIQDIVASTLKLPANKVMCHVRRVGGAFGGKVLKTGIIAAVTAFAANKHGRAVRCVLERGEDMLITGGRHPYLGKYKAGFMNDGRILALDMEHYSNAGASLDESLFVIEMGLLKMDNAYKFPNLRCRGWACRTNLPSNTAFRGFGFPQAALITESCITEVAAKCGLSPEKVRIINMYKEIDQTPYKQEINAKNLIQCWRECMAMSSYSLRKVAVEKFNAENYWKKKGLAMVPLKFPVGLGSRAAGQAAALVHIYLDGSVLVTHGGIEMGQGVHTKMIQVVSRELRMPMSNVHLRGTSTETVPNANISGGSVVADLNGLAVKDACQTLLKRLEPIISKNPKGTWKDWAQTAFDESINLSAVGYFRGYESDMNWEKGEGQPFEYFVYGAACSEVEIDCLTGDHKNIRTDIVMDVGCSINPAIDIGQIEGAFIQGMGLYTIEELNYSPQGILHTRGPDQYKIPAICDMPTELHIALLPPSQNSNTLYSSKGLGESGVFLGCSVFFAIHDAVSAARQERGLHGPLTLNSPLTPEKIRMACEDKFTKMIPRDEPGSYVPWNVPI

[2] = system: IPdR oxidase activity of human intestine cytosol
[3] = system: locally advanced rectal cancer; conditions: cited from earlier work
[4] = system: head & neck cancers; conditions: cis-platin+definitive RT, cCR achieved; cited from earlier work

Structure (SMILES) | effect on human liver IPdR-aldehyde oxidase [1] | effect on human small intestine IPdR oxidase activity [2] | also measured
Oc1ncnc2[nH]ncc12 [allopurinol] | not | not inhibited | –
CCCCCOC(=O)Nc1nc(=O)n([C@@H]2O[C@H](C)[C@@H](O)[C@H]2O)cc1F [capecitabine] | – | – | pCR rate ([3]; neoadjuvant capecitabine+RT, Stage III rectal patients): 10-15%
N.N.[Cl][Pt][Cl] [cis-platin, cis-diamminedichloroplatinum II] | – | – | cure rate [4]: approximately 60%
COc1ccc(C=O)cc1O [isovanillin] | inhibited | not inhibited | –
CC1=CC(=O)c2ccccc2C1=O [menadione] | – | stimulated | –
O=C1[O][Pt]2([NH][C@@H]3CCCC[C@H]3[NH]2)[O]C1=O [oxaliplatin] | – | – | effect on pCR rate when added during pre-operative RT+FP ([3]; with increased normal tissue complications): without any improvement in pCR rate
